Laboratory results published in patent US6906203B1, “Substituted 4H-chromene and analogs as activators of caspases and inducers of apoptosis and the use thereof” (Cytovia, Inc., priority 1999, dated 2005).
“Also recorded” adds a separate entry of the source. Read-outs that look alike come from different tables or passages of the source.

Assays:
T-47D cells [1] = assay: Caspase cascade activation assay (N-(Ac-DEVD)-N'-ethoxycarbonyl-R110 fluorogenic substrate) in T-47D; type: cell-based, Human; conditions: 24 h incubation; for EC50: read-out: Caspase potency EC50; for Caspase activity Ratio: ratio of net RFU of test compound to control
Experimental: (§1) Human breast cancer cell lines T47D and ZR-75-1 were grown according to media component mixtures designated by American Type Culture Collection +10% FCS (Life Technologies, Inc.), in a 5% CO2-95% humidity incubator at 37° C. T-47D and ZR-75-1 cells were maintained at a cell density between 30 and 80% confluency at a cell density of 0.1 to 0.6×10^6 cells/ml. Cells were harvested at 600×g and resuspended at 0.65×10^6 cells/ml into appropriate media +10% FCS . […] An aliquot of 45 μl of cells was added to a well of a 96-well microtiter plate containing 5 μl of a 10% DMSO in RPMI-1640 media solution without test compound as the control sample. The samples were mixed by agitation and then incubated at 37° C. for 24 h in a 5% CO2-95% humidity incubator. After incubation, the samples were removed from the incubator and 50 μl of a solution containing 20 μM of N-(Ac-DEVD)-N′-ethoxycarbonyl-R110 (SEQ ID NO: 1) fluorogenic substrate (Cytovia, Inc.; WO99/18856), 20% sucrose (Sigma), 20 mM DTT (Sigma), 200 mM NaCl (Sigma), 40 mM Na PIPES buffer pH 7.2, and 500 μg/ml lysolecithin (Calbiochem) was added. The samples were mixed by agitation and incubated at room temperature. Using a fluorescent plate reader (Model 1420 Wallac Instruments), an initial reading (T=0) was made approximately 1-2 min after addition of the substrate solution, employing excitation at 485 nm and emission at 530 nm, to determine the background fluorescence of the control sample. After the 3 h incubation, the samples were read for fluorescence as above (T=3 h).
(§2) The Relative Fluorescence Unit values (RFU) were used to calculate the sample readings as follows: RFU(T=3h)−Control RFU (T=0)=Net RFU(T=3h)
(§3) The EC50 (nM) was determined by a sigmoidal dose-response calculation (Prism 2.0, GraphPad Software Inc.).

ZR-75-1 cells [2] = assay: Caspase cascade activation assay (N-(Ac-DEVD)-N'-ethoxycarbonyl-R110 fluorogenic substrate) in ZR-75-1; type: cell-based, Human; conditions: 24 h incubation; for EC50: read-out: Caspase potency EC50; for Caspase activity Ratio: ratio of net RFU of test compound to control
Experimental: as §1, §2, §3

T47D cells = assay: Cell cycle arrest by flow cytometry (propidium iodide), T47D; type: cell-based, Human; conditions: 1 μM, 18 h
Experimental: (§4) T47D, ZR-75-1 breast cancer cell lines and PC-3, an androgen-independent prostate cancer cell line were maintained and harvested as described in Example 148. Jurkat T leukemia cells were grown in RPMI 1640 media (Life Technologies, Inc.) +10% FCS (Sigma Chemical Company) in a 5% CO2-95% humidity incubator at 37° C., and maintained at a cell density between 4 and 8×10^5 cells/ml. 1×10^6 cells were induced with 1 μM of 2-amino-3-cyano-7-dimethylamino-4-(3-methoxy-4,5-methylenedioxyphenyl)-4H-chromene or 2-amino-3-cyano-7-dimethylamino-4-(3,4-methylenedioxyphenyl)-4H-chromene for 18 h at 37° C. As a control, cells were also incubated with DMSO. Cells were harvested at 1200 rpm and washed twice with 5 mM EDTA/PBS. Cells were then resuspended in 300 μl EDTA/PBS and […] of 100% ethanol, vortexed and incubated at room temperature for 1 h. Samples were spun down at 12000 rpm for 5 min and the supernatant was removed. A solution containing 100 μg/ml of propidium iodide and 1 mg/ml of RNAse A (fresh) was added to the samples and incubated for 1 h at room temperature. Samples were then transferred to 12×75 mm polystyrene tubes and analysed on a flow cytometer. All flow cytometry analyses were performed on FACScalibur (Becton Dickinson) using Cell Quest analysis software.

T-47D cells [3] = assay: Inhibition of cell proliferation (GI50), CellTiter 96 AQUEOUS One, T-47D; type: cell-based; conditions: Homo sapiens, T47D, 48 h
Experimental: (§5) T-47D and ZR-75-1 cells were grown and harvested as in Example 148. An aliquot of 90 μl of cells ([…] cells/ml) was added to a well of a 96-well microtiter plate containing 10 μl of a 10% DMSO in RPMI-1640 media solution containing 1 nM to 100 μM of 2-amino-3-cyano-7-dimethylamino-4-(3-methoxy-4,5-methylenedioxyphenyl)-4H-chromene (Example 19) or other test compound (0.1 nM to 10 μM final). An aliquot of 90 μl of cells was added to a well of a 96-well microtiter plate containing 10 μl of a 10% DMSO in RPMI-1640 media solution without compound as the control sample for maximal cell proliferation (Amax). The samples were mixed by agitation and then incubated at 37° C. for 48 h in a 5% CO2-95% humidity incubator. […] Using an absorbance plate reader (Model 1420 Wallac Instruments), an initial reading (T=0) was made approximately 1-2 min after addition of the solution, employing absorbance at 490 nm. This determines the possible background absorbance of the test compounds. No absorbance for 2-amino-3-cyano-7-dimethylamino-4-(3-methoxy-4,5-methylenedioxyphenyl)-4H-chromene or its analogs was found at 490 nm. […]
(§6) The samples were mixed by agitation and then incubated at 37° C. for 0.5 h in a 5% CO2-95% humidity incubator. […] Absorbance was read as above, (AT=0) defining absorbance for initial cell number used as baseline in GI50 determinations.

PC-3 cells = assay: Cell cycle arrest by flow cytometry (propidium iodide), PC-3; type: cell-based; conditions: 1 μM, 18 h
Experimental: as §4

ZR-75-1 cells [4] = assay: Inhibition of cell proliferation (GI50), CellTiter 96 AQUEOUS One, ZR-75-1; type: cell-based; conditions: Homo sapiens, ZR-75-1, 48 h
Experimental: as §5, §6

Jurkat cells [5] = assay: Mitotic arrest in Jurkat cells (mitotic figures, Syto 16); type: cell-based; conditions: 6 h
Experimental: Jurkat cells were incubated with a range of concentrations of 2-amino-3-cyano-7-dimethylamino-4-(3-methoxy-4,5-methylenedioxyphenyl)-4H-chromene (0.02 μM to 5 μM) for 6 h under normal growth conditions; control cultures were treated with DMSO vehicle. The cells were then treated for 20 min. with 800 nM Syto 16. Cytospin preparations were then prepared and the samples were viewed by fluorescent microscopy using a fluorescein filter set. For each concentration of test compound, the number of mitotic figures were counted and expressed as a percentage of the total number of cells. Three fields from each condition were evaluated and the mean and SEM were calculated and plotted as a function of drug concentration (FIG. 3).

Jurkat T leukemia cells = assay: Cell cycle arrest by flow cytometry (propidium iodide), Jurkat; type: cell-based; conditions: 1 μM, 18 h
Experimental: as §4

[6] = tested on: poly(ADP)ribose polymerase (PARP) cleavage in Jurkat cells; assay: PARP cleavage in Jurkat cells (western blot); type: cell-based
Experimental: A wide range of natural substrates are cleaved by the caspases during apoptosis. One of these is poly(ADP)ribose polymerase (PARP), an enzyme important in genome surveillance. The ability of 2-amino-3-cyano-7-dimethylamino-4-(3-methoxy-4,5-methylenedioxyphenyl)-4H-chromene to induce PARP cleavage was tested by treating Jurkat cells with the compound at a concentration of 2.5 μM for 5, 15 and 30 h. Control cultures were treated with DMSO vehicle or staurosporine, a known apoptosis inducer.

Jurkat cells [7] = assay: Nuclear fragmentation in Jurkat cells (Syto16 staining); type: cell-based; conditions: 100 nM or higher, 24 h
Experimental: The ability of 2-amino-3-cyano-7-dimethylamino-4-(3-methoxy-4,5-methylenedioxyphenyl)-4H-chromene to induce nuclear fragmentation was tested by treatment of Jurkat cells with the test compound followed by staining of the nucleus with Syto16, a fluorescent DNA dye. The nuclei of Jurkat cells treated with DMSO vehicle are round with dispersed chromatin that is moderately stained with Syto16 (FIG. 1A).

[8] = Homo sapiens, T47D, 0.016 to 1 μM final
[9] = Homo sapiens, 0.016 to 1 μM final

| EC50 (T-47D cells [1]; [8]) | EC50 (ZR-75-1 cells [2]; [9]) | Compound | Caspase activity Ratio (T-47D cells [1]) | Caspase activity Ratio (ZR-75-1 cells [2]) | also measured |
| --- | --- | --- | --- | --- | --- |
| 172 nM | 96 nM | COc1cc(C2C(C#N)=C(N)Oc3cc4c(cc32)OCO4)cc2c1OCO2 (centres unmarked) [Example 14, 2-Amino-3-cyano-4-(3-methoxy-4,5-methylenedioxyphenyl)-6,7-methylenedioxy-4H-chromene] | 5.5 | 9.0 | – |
| – | 60 nM | CN(C)c1ccc2c(c1)OC(N)=C(C#N)C2c1ccc2c(c1)OCO2 (centres unmarked) [Example 1, 2-Amino-3-cyano-7-dimethylamino-4-(3,4-methylenedioxyphenyl)-4H-chromene] | – | 4.2 | Cell cycle arrest (T47D cells): progression and arrest in G2/M; also recorded: induce cell cycle arrest; GI50 (T-47D cells [3]): 100 nM; Cell cycle arrest (PC-3 cells; listed as 2-amino-3-cyano-7-dimethylamino-4-(3,4-methylenedioxyphenyl)-4-H-chromene): progression and arrest in G2/M; Cell cycle arrest (PC-3 cells; listed as 2-amino-3-cyano-7-dimethylamino-4-(3,4-methylenedioxyphenyl)-4H-chromene): induce cell cycle arrest; GI50 (ZR-75-1 cells [4]): 10000 nM |
| 87 nM | 38 nM | COc1cc(C2C(C#N)=C(N)Oc3cc(N(C)C)ccc32)cc2c1OCO2 (centres unmarked) [Example 19, 2-Amino-3-cyano-7-dimethylamino-4-(3-methoxy-4,5-methylenedioxyphenyl)-4H-chromene] | 5.5 | 6.3 | Cell cycle arrest (T47D cells): progression and arrest in G2/M; also recorded: induce cell cycle arrest; Percent mitotic arrest versus drug concentration (Jurkat cells [5]; up to 1.0 μM (FIG. 3)): increasing percent mitotic arrest with increasing drug concentration; EC50 (Jurkat cells [5]; Homo sapiens, 0.02 μM to 5 μM): ~125 nM; Cell cycle arrest (Jurkat T leukemia cells): progression and arrest in S/G2/M; also recorded: induces cell cycle arrest; GI50 (T-47D cells [3]): 3 nM; Cell cycle arrest (PC-3 cells): progression and arrest in G2/M; also recorded: induce cell cycle arrest; PARP cleavage at 30 h [6]: virtually all of PARP was converted into its cleaved form; GI50 (ZR-75-1 cells [4]): 500 nM; Nuclear fragmentation (Jurkat cells [7]): shrunken and fragmented nuclei |

More lines, now with the values behind:

| Compound | EC50 (T-47D cells [1]; [8]) | EC50 (ZR-75-1 cells [2]; [9]) | Caspase activity Ratio (T-47D cells [1]) | Caspase activity Ratio (ZR-75-1 cells [2]) | also measured |
| --- | --- | --- | --- | --- | --- |
| COc1cc(C2C3=CC=C4N=CC=C4C3OC(N)=C2C#N)cc2c1OCO2 (centres unmarked) [Example 94, 2-Amino-3-cyano-4-(3-methoxy-4,5-methylenedioxyphenyl)-4H-indolo[4,5-b]pyran] | 49 nM | 25 nM | 6.5 | 7.8 | – |
| COc1cc(C2C3=CC=C4N=CC=C4C3OC(N)=C2C#N)cc(Br)c1OC (centres unmarked) [Example 97, 2-Amino-3-cyano-4-(3-bromo-4,5-dimethoxyphenyl)-4H-indolo[4,5-b]pyran] | 6 nM | 7 nM | 2.7 | 5.0 | – |
| COc1cc(C2C(C#N)=C(N)Oc3c2ccc2ccccc32)cc(Br)c1OC (centres unmarked) [Example 103, 2-Amino-3-cyano-4-(3-bromo-4,5-dimethoxyphenyl)-4H-naphtho[1,2-b]pyran] | 17 nM | 12 nM | 2.2 | 4.2 | – |
| COc1cc(C2C3=CC=C4N=CC=C4C3OC(N)=C2C#N)cc(OC)c1OC (centres unmarked) [Example 99, 2-Amino-3-cyano-4-(3,4,5-trimethoxyphenyl)-4H-indolo[4,5-b]pyran] | 36 nM | 23 nM | 2.8 | 4.3 | – |
| COc1cc(Br)c(C2C3=CC=C4N=C(C)C=C4C3OC(N)=C2C#N)cc1OC (centres unmarked) [Example 96, 2-Amino-3-cyano-4-(2-bromo-4,5-dimethoxyphenyl)-8-methyl-4H-indolo[4,5-b]pyran] | – | – | Inactive | Inactive | Caspase potency EC50 (nM) (T-47D cells [1]; 0.016 to 1 μM final): Inactive; Caspase potency EC50 (nM) (ZR-75-1 cells [2]; 0.016 to 1 μM final): Inactive |
| COc1cc(Br)c(C2C3=CC=C4N=CC=C4C3OC(N)=C2C#N)cc1OC (centres unmarked) [Example 95, 2-Amino-3-cyano-4-(2-bromo-4,5-dimethoxyphenyl)-4H-indolo[4,5-b]pyran] | 720 nM | 364 nM | 3.8 | 5.1 | – |
| CN(C)c1ccc2c(c1)OC(N)=C(C#N)C2c1cccc([N+](=O)[O-])c1 (centres unmarked) [Example 38, 2-Amino-3-cyano-7-dimethylamino-4-(3-nitrophenyl)-4H-chromene] | 45 nM | 22 nM | 12.7 | 6.5 | – |
| Cc1ccc(C2C(C#N)=C(N)Oc3cc(N(C)C)ccc32)cc1[N+](=O)[O-] (centres unmarked) [Example 4, 2-Amino-3-cyano-7-dimethylamino-4-(4-methyl-3-nitropheyl)-4H-chromene] | – | – | 6.0 | 6.6 | EC50 (T-47D cells [1]; 0.016 to 1 μM final): 200 nM; EC50 (ZR-75-1 cells [2]; 0.016 to 1 μM final): 150 nM |
